pKi: −log10 of the molar value. Where only a bound is given, the exact number is not on record here.

One assay addresses T1, Human Recombinant Matriptase 2 (Homo sapiens, UniProt Q8IU80).
T1 construct: made in house
T1 sequence (Q8IU80 1-811): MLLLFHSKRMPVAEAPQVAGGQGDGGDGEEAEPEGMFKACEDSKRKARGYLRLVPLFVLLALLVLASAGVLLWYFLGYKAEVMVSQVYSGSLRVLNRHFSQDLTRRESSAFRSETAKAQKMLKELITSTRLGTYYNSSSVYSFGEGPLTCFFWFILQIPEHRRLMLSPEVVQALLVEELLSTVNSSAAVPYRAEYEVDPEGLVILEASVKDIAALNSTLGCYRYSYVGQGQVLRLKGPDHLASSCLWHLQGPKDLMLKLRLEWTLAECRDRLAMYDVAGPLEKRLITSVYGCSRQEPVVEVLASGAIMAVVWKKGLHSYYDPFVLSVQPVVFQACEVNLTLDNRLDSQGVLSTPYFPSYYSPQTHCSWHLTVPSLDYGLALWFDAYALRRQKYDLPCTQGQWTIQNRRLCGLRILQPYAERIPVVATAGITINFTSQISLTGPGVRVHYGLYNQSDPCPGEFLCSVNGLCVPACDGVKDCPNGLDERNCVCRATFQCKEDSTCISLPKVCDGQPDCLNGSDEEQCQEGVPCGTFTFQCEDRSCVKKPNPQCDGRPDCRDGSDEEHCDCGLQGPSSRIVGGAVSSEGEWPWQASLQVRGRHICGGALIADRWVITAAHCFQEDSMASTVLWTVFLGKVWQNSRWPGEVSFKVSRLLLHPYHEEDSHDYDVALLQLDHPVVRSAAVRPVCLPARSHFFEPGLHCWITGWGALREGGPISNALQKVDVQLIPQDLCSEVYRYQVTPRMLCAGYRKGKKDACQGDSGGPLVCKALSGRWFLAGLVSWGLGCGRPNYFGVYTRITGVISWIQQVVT
The assay can be described thus: Matriptase 2 inhibition, fluorescence based assay (Method I). The format is biochemical. To be noted: Table A; Ki of Matriptase-2; read-out: Mat-2 Ki. The method in brief: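 In-house recombinant enzyme (3.5 nM), preincubated 30 min with compound, then Boc-Gln-Ala-Arg-AMC substrate (62 μM) in 50 mM Tris pH 7.5, 150 mM NaCl, 0.01% gelatin, 1% DMSO, 25 °C. Fluorescence (Ex 360/Em 480 nm) read 60 min after substrate; IC50 from variable-slope sigmoidal fit of % inhibition.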
Regarding `CN1CCN(CCOC(=O)c2cc3ccc(CN)nc3n2Cc2cc(NS(=O)(=O)Cc3ccccc3)cc3ccccc23)CC1` [Compound 135, 2-(4-methylpiperazin-1-ylethyl 6-(aminomethyl)-1-{[3-(phenylmethane-sulfonamido)naphthalen-1-yl]methyl}-1H-pyrrolo-[2,3-b]pyridine-2-car-boxylate], the pKi (as a rule, the Ki on a negative log10 scale, so that one unit is a factor of ten) was no less than 7.00.
On the same count and under the same terms, in the case of `CN1CCN(CCOC(=O)c2cc3ccc(CN)nc3n2Cc2cc(NS(=O)(=O)Cc3ccsc3)cc3ccccc23)CC1` [Compound 161, 2-(4-methylpiperazin-1-yl)ethyl 6-(aminometh-yl)-1-({3-[(thiophen-3-yl)methanesulfonamido]-naphthalen-1-yl}meth-yl)-1H-pyrrolo[2,3-b]-pyridine-2-carboxylate] it was no less than 7.00; in that of `CN(C)CCNC(=O)c1cc2ccc(CN)nc2n1Cc1cc(NS(=O)(=O)Cc2ccccc2)cc2ccccc12` [Compound 71, 6-(aminomethyl)-N-[2-(dimethylamino)ethyl]-1-{[3-(phenylmethane-sulfonamido)naphthalen-1-yl]methyl}-1H-pyr-rolo[2,3-b]pyridine-2-carboxamide], no less than 7.00; in that of `CC(C)(C)n1ccnc1COC(=O)c1cc2ccc(CN)nc2n1Cc1cc(NS(=O)(=O)Cc2ccccc2)cc2ccccc12` [Compound 46, (1-tert-butyl-1H-imid-azol-2-yl)methyl 6-(aminomethyl)-1-{[3-(phenylmethanesulfon-amido)naphthalen-1-yl]-methyl}-1H-pyrrolo[2,3-b]pyridine-2-carboxylate], no less than 7.00.
Still for that read-out and setting: in the case of `CC[C@@H](COC(=O)c1cc2ccc(CN)nc2n1Cc1cc(NS(=O)(=O)Cc2ccccc2)cc2ccccc12)N(C)C` (racemic) [Compound 54, rac-(2R)-2-(dimethyl-amino)butyl 6-(amino-methyl)-1-{[3-(phenyl-methanesulfonamido)-naphthalen-1-yl]methyl}-1H-pyrrolo[2,3-b]pyr-idine-2-carboxylate] it was no less than 7.00.
Turning to `NCc1ccc2cc(C(=O)OCC3CCN(C=O)CC3)n(Cc3cc(NS(=O)(=O)Cc4ccccc4)cc4ccccc34)c2n1` [Compound 59, (1-formylpiperidin-4-yl)-methyl 6-(aminomethyl)-1-{[3-(phenylmethane-sulfonamido)naphthalen-1-yl]methyl}-1H-pyr-rolo[2,3-b]pyridine-2-carboxylate], the negative-log Ki (pKi) is no less than 7.00.
The same measure, in the same setting: in the case of `CNC(=O)c1cc2ccc(CN)nc2n1Cc1cc(NS(=O)(=O)Cc2ccccc2)cc2ccccc12` [Compound 66] it was no less than 7.00; in that of `CN1CCC(COC(=O)c2cc3ccc(CN)nc3n2Cc2cc(NS(=O)(=O)C(F)(F)c3ccccc3)cc3ccccc23)CC1` [Compound 42, (1-methylpiperidin-4-yl)methyl 6-(aminometh-yl)-1-({3-[difluoro(phen-yl)methanesulfonamido]-naphthalen-1-yl}meth-yl)-1H-pyrrolo[2,3-b]-pyridine-2-carboxylate], no less than 7.00.
For the molecule `COCCN1CC[C@H](COC(=O)c2cc3ccc(CN)nc3n2Cc2cc(NS(=O)(=O)Cc3ccsc3)cc3ccccc23)C1` (racemic) [Compound 172, [1-(2-methoxyethyl)-pyrrolidin-3-yl]methyl 6-(aminomethyl)-1-({3-[(thiophen-3-yl)methane-sulfonamido]naphthalen-1-yl}methyl)-1H-pyr-rolo[2,3-b]pyridine-2-carboxylate], the pKi was no less than 7.00.
`Cn1ccc(COC(=O)c2cc3ccc(CN)nc3n2Cc2cc(NS(=O)(=O)Cc3ccccc3)cc3ccccc23)n1` [Compound 61, (1-methyl-1H-pyrazol-3-yl)methyl 6-(amino-methyl)-1-{[3-(phenyl-methanesulfonamido)-naphthalen-1-yl]methyl}-1H-pyrrolo[2,3-b]pyr-idine-2-carboxylate]: the pKi was no less than 7.00.
On to `Cc1nccn1CCOC(=O)c1cc2ccc(CN)nc2n1Cc1cc(NS(=O)(=O)Cc2ccccc2)cc2ccccc12` [Compound 140, 2-(2-methyl-1H-imid-azol-1-yl)ethyl 6-(amino-methyl)-1-{[3-(phenyl-methanesulfonamido)-naphthalen-1-yl]methyl}-1H-pyrrolo[2,3-b]pyr-idine-2-carboxylate], for which the pKi was 6.30 to 7.00.
On the same count and under the same terms, in the case of `COC(=O)NCCOC(=O)c1cc2ccc(CN)nc2n1Cc1cc(NS(=O)(=O)Cc2ccccc2)cc2ccccc12` [Compound 75, 2-[(methoxycarbonyl)-amino]ethyl 6-(amino-methyl)-1-{[3-(phenyl-methanesulfonamido)-naphthalen-1-yl]methyl}-1H-pyrrolo[2,3-b]pyr-idine-2-carboxylate] it was no less than 7.00.

Still in this assay, the particulars now being: Table A; Ki of Matriptase-2 given as class symbols; read-out: Mat-2 Ki.
For the molecule `NCc1ccc2cc(C(=O)O)n(Cc3cc(NS(=O)(=O)N4CCC(C(F)(F)F)CC4)cc4ccccc34)c2c1` [Compound 393, 6-(aminomethyl)-1-{[3-({[4-(trifluoromethyl)-piperidin-1-yl]sulfonyl}-amino)naphthalen-1-yl]-methyl}-1H-indole-2-carboxylic acid], the pKi was 5.52 to 6.30.
On the same count and under the same terms, in the case of `C[C@@H]1CN(C(=O)Nc2cc(Cn3c(C(=O)O)cc4ccc(CN)nc43)c3ccccc3c2)C[C@H](C)N1` [Compound 304, 6-(aminomethyl)-1-[(3-{[(3R,5S)-3,5-dimeth-ylpiperazine-1-carbon-yl]amino}naphthalen-1-yl)methyl]-1H-pyrrolo-[2,3-b]pyridine-2-car-boxylic acid] it was 5.52 to 6.30; in that of `NCc1ccc2cc(C(=O)Nc3nnn[nH]3)n(Cc3cc(NS(=O)(=O)CC[C@@H]4CCCN4)cc4ccccc34)c2n1` [Compound 208, 6-(aminomethyl)-1-[(3-(2-[(2S)-pyrrolidin-2-yl]ethanesulfonamido}-naphthalen-1-yl)methyl]-N-(1H-1,2,3,4-tetrazol-5-yl)-1H-pyrrolo[2,3-b]-pyridine-2-carboxamide], no less than 7.00.
Same read-out and setting: in the case of `C[C@@H](c1ccccc1)S(=O)(=O)Nc1cc(Cn2c(C(=O)OCC3CCN(C)CC3)cc3ccc(CN)cc32)c2ccccc2c1` [Compound 387, (1-methylpiperidin-4-yl)-methyl 6-(aminomethyl)-1-({3-[(1S)-1-phenyl-ethanesulfonamido]-naphthalen-1-yl}methyl)-1H-indole-2-carboxylate] it was 6.30 to 7.00; in that of `Cc1cccc(C)c1CS(=O)(=O)Nc1cc(Cn2c(C(=O)OCC3CCN(C)CC3)cc3ccc(CN)cc32)c2ccccc2c1` [Compound 375, (1-methylpiperidin-4-yl)-methyl 6-(aminomethyl)-1-({3-[(2,6-dimethyl-phenyl)methanesulfon-amido)naphthalen-1-yl}-methyl)-1H-indole-2-carboxylate], no less than 7.00; in that of `CN1CCC(COC(=O)c2cc3ccc(CN)nc3n2Cc2cc(NS(=O)(=O)CC[C@H]3CCCN3)cc3ccccc23)CC1` [Compound 281, (1-methylpiperidin-4-yl)methyl 6-(aminometh-yl)-1-[(3-{2-[(2R)-pyr-rolidin-2-yl]ethanesul-fonamido}naphthalen-1-yl)methyl]-1H-pyrrolo-[2,3-b]pyridine-2-car-boxylate], 5.52 to 6.30.
Same read-out and setting: in the case of `COc1ccc(Cl)cc1CS(=O)(=O)Nc1cc(Cn2c(C(=O)O)cc3ccc(CN)nc32)c2ccccc2c1` [Compound 247, 6-(aminomethyl)-1-({3-[(5-chloro-2-methoxy-phenyl)methanesulfon-amido]naphthalen-1-yl}-methyl)-1H-pyrrolo[2,3-b]pyridine-2-carboxylic acid] it was 5.52 to 6.30.

The values are drawn from patent US20240400553A1, “AMINE BASED MATRIPTASE 2 INHIBITORS AND USES THEREOF” (Disc Medicine, Inc., priority 2023, published 2024).
